From patent EP4111863A1, “PHOSPHORUS USE EFFICIENCY ENHANCERS AS PLANT GROWTH PROMOTORS” (EuroChem Antwerpen, priority 2021, dated 2023)

Legend:
SPX1 = experiment: Chemical activity assessment: SPX1 phosphate starvation biomarker, pSPX1::GUS reporter line, GUS stained area; type: in vivo, Arabidopsis thaliana; conditions: for GUS (SPX1) stained area normalized to the number of seeds (pixels): 50 µM compound, low phosphate modMS liquid medium, 7 days after germination, low phosphate control average of the same plate
How it was run: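 Arabidopsis Col-0 pSPX1::GUS seedlings grown in 96-well plates in low-phosphate liquid modMS with 1% sucrose, compounds at 50 µM final (1% DMSO). At 7 days after germination, GUS stained 1.5 h at 37 °C and blue signal area measured from scans. Wells with leaf area 50% or less of control were omitted.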

Arabidopsis [1] = experiment: Arabidopsis vertical plate growth assay (primary root length, shoot biomass); type: in vivo, Arabidopsis thaliana; conditions: low phosphate; for Primary root length (in % versus control): Table 2, versus control without compound
Procedure: (§1) All Arabidopsis plant experiments were performed using the Arabidopsis thaliana Columbia-0 background. The Arabidopsis pSPX1::GUS line is described in the […] 2008, 54: 965-975. For rice, the cultivar Nipponbare was used. For maize, the cultivars DKC 2931 and B104 were used for regular pot experiments and sand-based pot experiments, respectively. For soybean, the cultivar Primus was used. […] The medium was solidified due to the addition of 0,6% Gelrite, unless stated otherwise. In case of vertical plates (root length and root hair measurements), the medium was supplied with 0.5% of sucrose and 1 µM (low phosphate, 1 µM KH2PO4, 9.9 mM KCI), 10 µM (low phosphate 10 µM KH2PO4, 9.9 mM KCI) or 1.25 mM KH2PO4 (high phosphate). Arabidopsis seeds were stratified for 2 days at 4 °C before germination. Seedlings were germinated in climate-controlled growth chambers at 22 °C under continuous light (100 µmol m^-2 s^-1). Husked rice seeds were germinated on wetted Whatman paper for 2 days at 37 °C and then transferred to Sterivent boxes or square Petri dishes with solid medium. Maize and soybean seeds were wetted 24 hours at room temperature prior to sowing in pots.
Arabidopsis primary root growth experiments were done on MS1/2 on vertical standing plates and roots were measured 11 days after germination. Roots were imaged using a flatbed scanner (EPSON Expression 11000XL) and root length was measured using ImageJ software. Arabidopsis shoot biomass was determined in 11 days after germination and growth on vertical standing plates with modMS. Arabidopsis leaf area was measured 21 days after germination on horizontal plates with modMS medium. Plates were scanned from the top using a flatbed scanner (EPSON Expression 11000XL) and the visible leaf area was measured using ImageJ software. Rice plate experiments used vertically standing Petri dishes containing MS1/2 medium (low phosphate - 0.001 mM) solidified with 0.8% washed agar. Plant height was measured 11 days after germination. Rice box experiments used modMS medium and a low phosphate condition of 0.025 mM phosphate. Plant height was measured 13 days after germination. All growth experiments occurred with 10 µM of compound and in low phosphate conditions, unless stated otherwise. Controls always received the same DMSO concentration.

Maize [2] = experiment: Sand-based maize pot experiment; type: in vivo; conditions: low phosphate, 10 µM
Procedure: as §1
(§2) Regular Arabidopsis and maize pot experiments used an unfertilized potting soil, which was supplemented at the start of the experiment with 50 ml H2O containing 0.25 g/l NH4NO3 and 0.44 g/l (high phosphate) or no (maize and soybean) or 0.11 g/l KH2PO (Arabidopsis) for low phosphate conditions. For the sand-based maize pot experiment, sand was supplemented with 50 ml H2O containing 0.25 g/l NH4NO3 and 0.38 g/l (high phosphate) or 0.02 g/l (low phosphate) KH2PO4. […] Compound concentration was 10 µM, calculated based on the total water content after watering, and was added at the start of the experiment (Arabidopsis) or once a week (maize). […] All parameters in the sand experiment, except the rate of leaf 4 (measured the first 4 days after emergence), were measured 19 days after sowing. Measurements in the pot experiments with potting soil were done after 4 weeks of growth, except for leaf 5, which was measured at 26 days. s. […]

Rice [3] = experiment: Rice plate experiment; type: in vivo; conditions: low phosphate 0.001 mM, 10 µM, 11 days after germination
Procedure: (§3) All Arabidopsis plant experiments were performed using the Arabidopsis thaliana Columbia-0 background. The Arabidopsis pSPX1::GUS line is described in the […] 2008, 54: 965-975. For rice, the cultivar Nipponbare was used. For maize, the cultivars DKC 2931 and B104 were used for regular pot experiments and sand-based pot experiments, respectively. For soybean, the cultivar Primus was used. […] The medium was solidified due to the addition of 0,6% Gelrite, unless stated otherwise. […]
(§4) Arabidopsis primary root growth experiments were done on MS1/2 on vertical standing plates and roots were measured 11 days after germination. Roots were imaged using a flatbed scanner (EPSON Expression 11000XL) and root length was measured using ImageJ software. Arabidopsis shoot biomass was determined in 11 days after germination and growth on vertical standing plates with modMS. Arabidopsis leaf area was measured 21 days after germination on horizontal plates with modMS medium. Plates were scanned from the top using a flatbed scanner (EPSON Expression 11000XL) and the visible leaf area was measured using ImageJ software. […] Plant height was measured 11 days after germination. […] Plant height was measured 13 days after germination. […]

Arabidopsis [4] = experiment: Arabidopsis horizontal plate growth assay (leaf area); type: in vivo, Arabidopsis thaliana; conditions: 10 µM, 21 days after germination
Procedure: as §3, §4

Maize [5] = experiment: Long term maize pot experiment, cultivar B104 (Phenovision platform); type: in vivo
Procedure: (§5) Regular Arabidopsis and maize pot experiments used an unfertilized potting soil, which was supplemented at the start of the experiment with 50 ml H2O containing 0.25 g/l NH4NO3 and 0.44 g/l (high phosphate) or no (maize and soybean) or 0.11 g/l KH2PO (Arabidopsis) for low phosphate conditions. For the sand-based maize pot experiment, sand was supplemented with 50 ml H2O containing 0.25 g/l NH4NO3 and 0.38 g/l (high phosphate) or 0.02 g/l (low phosphate) KH2PO4. Potassium was balanced via addition of KCI. Compound concentration was 10 µM, calculated based on the total water content after watering, and was added at the start of the experiment (Arabidopsis) or once a week (maize). Indexed chlorophyll contents were received via a SPAD 502 Plus Chlorophyll Meter. All parameters in the sand experiment, except the rate of leaf 4 (measured the first 4 days after emergence), were measured 19 days after sowing. Measurements in the pot experiments with potting soil were done after 4 weeks of growth, except for leaf 5, which was measured at 26 days. s. The long term maize pot experiment was performed on the automated Phenovision platform (see Mertens et al, 2021, 20 https.l/doi.org/10.3389/fpls.2021.640914) with maize cultivars B104 and DKC2931. End point measurements occurred after 90 days (B104) or 70 days (DKC2931). Plants were grown on an unfertilized potting soil, which was fertilized bi-weekly with 50 mL modified Hoagland solution (2.5 x concentrated; but with 0.25 mM KH2PO4.).

Rice [6] = experiment: Rice box experiment; type: in vivo; conditions: low phosphate 0.025 mM, 10 µM, 13 days after germination
Procedure: as §3, §4

[7] = system: Arabidopsis, rice, soybean and maize; experiment: Growth experiments in different growing systems and plant species (summary statement); type: in vivo; conditions: result in words; plate, box or pot experiments
Procedure: as §3, §4

Maize [8] = experiment: Long term maize pot experiment, cultivar DKC2931 (Phenovision platform); type: in vivo; conditions: DKC2931, 70 days
Procedure: as §5

Arabidopsis [9] = experiment: Arabidopsis pot experiment; type: in vivo, Arabidopsis thaliana; conditions: low phosphate, 10 µM, 4 weeks of growth
Procedure: as §3
as §2, with “conditions.” for “conditions. For the sand-based maize pot experiment, sand was supplemented with 50 ml H2O containing 0.25 g/l NH4NO3 and 0.38 g/l (high phosphate) or 0.02 g/l (low phosphate) KH2PO4.”

Maize [10] = experiment: Regular maize pot experiment (potting soil); type: in vivo; conditions: low phosphate, 10 µM once a week
Procedure: as §1, §2

[11] = Arabidopsis vertical plate, 10 µM, 11 days after germination
[12] = Maize pot long term, B104, 90 days

C(=C\c1cc2ccccc2nc1N1CCOCC1)/c1nc2ccccc2s1
GUS (SPX1) stained area normalized to the number of seeds (pixels) (SPX1; Table 3): 0 pixels

CN(CC1COc2ccccc2O1)c1ccc(S(=O)(=O)N2CCOCC2)cn1 (stereo not shown)
GUS (SPX1) stained area normalized to the number of seeds (pixels) (SPX1; Table 3): 0 pixels

O=C(NCc1ccccc1CS(=O)(=O)N1CCOCC1)c1ccc([N+](=O)[O-])cc1
GUS (SPX1) stained area normalized to the number of seeds (pixels) (SPX1; Table 3): 7 pixels

COCC(C)Nc1ccc(N2CCOC(C)(C)C2)cc1OC (stereo not shown)
GUS (SPX1) stained area normalized to the number of seeds (pixels) (SPX1; Table 3): 7 pixels

O=C(Nc1sc2c(c1C(=O)N1CCOCC1)CCCC2)C1CCCc2ccccc21 (stereo not shown)
GUS (SPX1) stained area normalized to the number of seeds (pixels) (SPX1; Table 3): 8 pixels

O=C(Nc1ccc(F)c(C(F)(F)F)c1)N1CCOCC1
GUS (SPX1) stained area normalized to the number of seeds (pixels) (SPX1; Table 3): 8 pixels

O=C(NC1COc2ccccc21)N1CCOC(c2ccc(Cl)cc2)C1 (stereo not shown)
GUS (SPX1) stained area normalized to the number of seeds (pixels) (SPX1; Table 3): 8 pixels

COc1cc(C(C)=O)ccc1OC(=O)N1CCOCC1
GUS (SPX1) stained area normalized to the number of seeds (pixels) (SPX1; Table 3): 8 pixels

CC1CN(Cn2nc(-c3cccs3)nc2S)C(C)CO1 (stereo not shown)
GUS (SPX1) stained area normalized to the number of seeds (pixels) (SPX1; Table 3): 9 pixels

CC(c1nc(C(C)(C)C)no1)N1CCOC(c2ccccc2)C1 (stereo not shown)
GUS (SPX1) stained area normalized to the number of seeds (pixels) (SPX1; Table 3): 9 pixels

CC(C)Cn1c(SCC(=O)c2ccc(Br)s2)nnc1N1CCOCC1
GUS (SPX1) stained area normalized to the number of seeds (pixels) (SPX1; Table 3): 9 pixels

O=S(=O)(CCN1CCOC2CCCCC21)c1cc(Cl)ccc1Cl (stereo not shown)
GUS (SPX1) stained area normalized to the number of seeds (pixels) (SPX1; Table 3): 9 pixels

COCCn1c(SCC(=O)N2CCOCC2)nnc1-c1ccncc1
GUS (SPX1) stained area normalized to the number of seeds (pixels) (SPX1; Table 3): 9 pixels

O=C1C(=O)N(C2CCCC2)C(=O)N1Cc1cccc(S(=O)(=O)N2CCOCC2)c1
GUS (SPX1) stained area normalized to the number of seeds (pixels) (SPX1; Table 3): 9 pixels

Cc1c(C(=O)NCC2CN(CC(C)C)CCO2)cnn1C (stereo not shown)
GUS (SPX1) stained area normalized to the number of seeds (pixels) (SPX1; Table 3): 9 pixels

Brc1ccc(CN2CCOC(Cn3cccn3)C2)s1 (stereo not shown)
GUS (SPX1) stained area normalized to the number of seeds (pixels) (SPX1; Table 3): 10 pixels

O=C(COc1cccc(F)c1)Nc1sc2c(c1C(=O)N1CCOCC1)CCCC2
GUS (SPX1) stained area normalized to the number of seeds (pixels) (SPX1; Table 3): 10 pixels

Cc1ccc(S(=O)(=O)N2CCN(S(=O)(=O)N3CCOCC3)CC2)cc1
GUS (SPX1) stained area normalized to the number of seeds (pixels) (SPX1; Table 3): 10 pixels

CC1CN(C(=O)c2nn(-c3ccccc3)c(=O)c3ccccc23)CC(C)O1 (stereo not shown)
GUS (SPX1) stained area normalized to the number of seeds (pixels) (SPX1; Table 3): 10 pixels

O=C(Nc1cccc(NC(=O)N2CCOC3(CCC3)C2)c1)C1CC1
GUS (SPX1) stained area normalized to the number of seeds (pixels) (SPX1; Table 3): 11 pixels

CCC(CC)C(C(=O)NCc1cccc(C)c1)N1CCOCC1 (stereo not shown)
GUS (SPX1) stained area normalized to the number of seeds (pixels) (SPX1; Table 3): 11 pixels

CN1CCOC2CN(Cc3cc(O)ccc3Br)CC21 (stereo not shown)
GUS (SPX1) stained area normalized to the number of seeds (pixels) (SPX1; Table 3): 12 pixels

Cc1csc(C2COCCN2C(=O)NC2CCc3ccccc32)n1 (stereo not shown)
GUS (SPX1) stained area normalized to the number of seeds (pixels) (SPX1; Table 3): 12 pixels

COCC1CN(C(=O)NCCc2c[nH]c3ccc(F)cc23)CCO1 (stereo not shown)
GUS (SPX1) stained area normalized to the number of seeds (pixels) (SPX1; Table 3): 13 pixels

COC(=O)C1CN(Cc2sccc2Br)C[C@@H](C)O1 (stereo partly shown)
GUS (SPX1) stained area normalized to the number of seeds (pixels) (SPX1; Table 3): 13 pixels

CCc1nnsc1C(=O)NCc1ccccc1N1CCOCC1
GUS (SPX1) stained area normalized to the number of seeds (pixels) (SPX1; Table 3): 13 pixels

O=C1NC(c2cc3ccccc3nc2N2CCOCC2)Nc2ccccc21 (stereo not shown)
GUS (SPX1) stained area normalized to the number of seeds (pixels) (SPX1; Table 3): 14 pixels

Cc1nc(N2CCOCC2)sc1C(=O)NN [Compound 4.1]
Primary root length (in % versus control) (Arabidopsis [1]): 118%

CNC(=O)c1sc(N2CCOC(C)C2)nc1C (stereo not shown) [Compound 4.3]
Primary root length (in % versus control) (Arabidopsis [1]): 122%

CC(C)c1ncsc1C(=O)NCC1CN(C)CCO1 (stereo not shown) [Compound 4.4]
GUS (SPX1) stained area normalized to the number of seeds (pixels) (SPX1; Table 2): 106 pixels

Cc1nc(N2CCOCC2)sc1CNCC1CN(C)CCO1 (stereo not shown) [Compound 4]
Primary root length (cm) (Arabidopsis [1]; [11]): 3.8 cm
Shoot biomass (Arabidopsis [1]; [11]): 26 mg
Primary root length (in % versus control) (Arabidopsis [1]): 211%
primary root length relative to the control without compound (Arabidopsis [1]; result in words, 10 µM, 11-day-old Arabidopsis plants): almost double
Crown root number (Maize [2]; 19 days after sowing): 7
Plant height (cm) (Maize [2]; 19 days after sowing): 26 cm
Growth rate of leaf 4 (Maize [2]; first 4 days after emergence): 2.3 cm/day
Plant height (cm) (Rice [3]): 15.8 cm
Leaf area (mm^2) (Arabidopsis [4]; low phosphate): 91 mm^2
Leaf area (mm^2) in suboptimal phosphate conditions (Arabidopsis [4]; suboptimal phosphate): 151 mm^2
Biomass (Maize [5]; [12]): 29 g
Plants with developed ears (%) (Maize [5]; [12]): 54%
Sum of leaf length (cm) (Maize [5]; [12]): 5473 cm
ear formation (Maize [5]; result in words, maize): stimulated
Plant height (cm) (Rice [6]): 5.1 cm
GUS (SPX1) stained area normalized to the number of seeds (pixels) (SPX1; Table 2): 9 pixels
suppression of the SPX1 biomarker (blue GUS staining) (SPX1; result in words, 7 days of growth in low phosphate conditions): practically completely suppressed
effect on the shoot biomass, leaf area or plant height [7]: clear positive effect
Biomass (Maize [8]): 31 g
Plants with developed ears (%) (Maize [8]): 100%
Sum of leaf length (cm) (Maize [8]): 3894 cm
Rosette size (cm^2) (Arabidopsis [9]): 19 cm^2
Plant height (cm) (Maize [10]; 4 weeks of growth): 62 cm
Shoot weight (Maize [10]; 4 weeks of growth): 4.4 g
Leaf 5 (cm) (Maize [10]; 26 days): 45 cm
